The target of series [1] is T1, Glucose-dependent insulinotropic receptor (Homo sapiens) (UniProt Q8TDV5).
T1 sequence (whole entry): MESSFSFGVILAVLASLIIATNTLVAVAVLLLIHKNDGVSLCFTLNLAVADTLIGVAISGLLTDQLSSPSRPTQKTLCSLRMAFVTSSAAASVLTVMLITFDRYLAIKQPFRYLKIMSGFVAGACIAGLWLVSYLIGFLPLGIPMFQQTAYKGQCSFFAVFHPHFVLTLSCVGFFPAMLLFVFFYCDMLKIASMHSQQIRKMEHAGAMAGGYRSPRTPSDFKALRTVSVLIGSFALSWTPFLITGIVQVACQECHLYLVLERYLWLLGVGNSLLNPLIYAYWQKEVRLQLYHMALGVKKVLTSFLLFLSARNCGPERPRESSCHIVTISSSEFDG
Briefly: Agonist activity at CREB-LBD and GAL4-DBD fused human GPR119 expressed in HEK293 cells at 1 uM by luciferase reporter gene assay relative to AR231453. The series is classed as functional, cell-based.

The target in series [2] is Dipeptidyl peptidase 8/9 (Homo sapiens) (UniProt Q6V1X1+Q86TI2). Briefly: Inhibition of full length recombinant human DPP-8/9 expressed in HEK293 cells at 10 uM incubated for 1 hr. The class given is cell-based.
Chain of Dipeptidyl peptidase 8/9 (Homo sapiens) (Q6V1X1 whole entry, looked up): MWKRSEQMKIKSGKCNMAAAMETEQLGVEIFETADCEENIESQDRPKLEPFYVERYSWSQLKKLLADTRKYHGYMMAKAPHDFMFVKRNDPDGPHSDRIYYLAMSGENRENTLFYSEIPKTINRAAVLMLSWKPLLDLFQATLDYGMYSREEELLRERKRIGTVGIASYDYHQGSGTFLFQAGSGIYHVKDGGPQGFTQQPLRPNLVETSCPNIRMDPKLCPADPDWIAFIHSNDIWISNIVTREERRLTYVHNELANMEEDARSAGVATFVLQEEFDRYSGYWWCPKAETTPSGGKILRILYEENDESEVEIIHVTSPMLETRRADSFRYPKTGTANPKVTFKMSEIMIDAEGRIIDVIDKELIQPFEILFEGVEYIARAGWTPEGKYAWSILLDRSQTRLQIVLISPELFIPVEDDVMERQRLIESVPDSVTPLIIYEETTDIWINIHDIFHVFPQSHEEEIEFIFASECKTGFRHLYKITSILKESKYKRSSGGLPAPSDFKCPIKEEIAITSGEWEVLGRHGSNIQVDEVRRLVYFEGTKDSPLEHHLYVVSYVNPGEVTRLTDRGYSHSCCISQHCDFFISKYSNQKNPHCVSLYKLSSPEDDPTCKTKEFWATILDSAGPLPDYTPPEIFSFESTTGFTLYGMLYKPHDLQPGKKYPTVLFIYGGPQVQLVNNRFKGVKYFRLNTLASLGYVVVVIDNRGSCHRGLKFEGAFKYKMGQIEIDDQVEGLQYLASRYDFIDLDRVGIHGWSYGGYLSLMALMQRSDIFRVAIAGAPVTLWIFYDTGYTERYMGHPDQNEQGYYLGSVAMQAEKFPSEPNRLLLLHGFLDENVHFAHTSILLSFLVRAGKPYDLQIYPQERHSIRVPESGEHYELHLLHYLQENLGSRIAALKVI
Chain of Dipeptidyl peptidase 8/9 (Homo sapiens) (Q86TI2 whole entry, looked up): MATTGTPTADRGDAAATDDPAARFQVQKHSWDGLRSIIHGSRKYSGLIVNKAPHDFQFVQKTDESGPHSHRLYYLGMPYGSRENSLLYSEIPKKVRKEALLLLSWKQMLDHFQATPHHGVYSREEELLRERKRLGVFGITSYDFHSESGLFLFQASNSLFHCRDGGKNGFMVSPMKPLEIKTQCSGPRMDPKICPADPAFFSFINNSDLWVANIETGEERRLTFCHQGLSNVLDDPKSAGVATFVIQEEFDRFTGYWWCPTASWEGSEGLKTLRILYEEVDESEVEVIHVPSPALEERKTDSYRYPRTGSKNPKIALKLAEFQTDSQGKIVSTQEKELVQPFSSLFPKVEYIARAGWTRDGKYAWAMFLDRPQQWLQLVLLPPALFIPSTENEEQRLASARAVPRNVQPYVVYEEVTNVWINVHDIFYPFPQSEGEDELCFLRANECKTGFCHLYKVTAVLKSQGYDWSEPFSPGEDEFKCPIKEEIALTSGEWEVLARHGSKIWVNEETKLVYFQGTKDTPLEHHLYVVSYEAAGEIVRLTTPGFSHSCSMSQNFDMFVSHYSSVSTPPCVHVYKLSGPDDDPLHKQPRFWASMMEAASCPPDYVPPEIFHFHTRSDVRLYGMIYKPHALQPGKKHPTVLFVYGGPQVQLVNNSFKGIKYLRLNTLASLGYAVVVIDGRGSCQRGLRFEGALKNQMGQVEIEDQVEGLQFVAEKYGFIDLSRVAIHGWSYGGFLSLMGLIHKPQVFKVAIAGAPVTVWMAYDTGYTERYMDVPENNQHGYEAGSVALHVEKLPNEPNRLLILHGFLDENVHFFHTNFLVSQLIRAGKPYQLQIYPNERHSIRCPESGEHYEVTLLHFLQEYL
Series [3] in a line: Metabolic stability in mouse liver microsomes at 1 umol/L after 30 mins by LC/MS/MS method. The class given is ADME. The note with it: 0.5 h, 1 µM.
For series [4], the target named is T2, Glucose-dependent insulinotropic receptor (Homo sapiens, UniProt Q8TDV5).
T2 sequence (Q8TDV5 whole entry): T1 sequence (whole entry)
Put plainly: Agonist activity at CREB-LBD and GAL4-DBD fused human GPR119 expressed in HEK293 cells by luciferase reporter gene assay. The series is classed as functional, cell-based. A general note: A reporter such as luciferase makes a cellular process visible.

This note sets out measurements from ChEMBL document CHEMBL3872227, “Discovery of novel xanthine compounds targeting DPP-IV and GPR119 as anti-diabetic agents” (Eur J Med Chem, 2016).

As a reminder, the inhibition is the share of the control response that was lost under treatment. The EC50 is the concentration needed to bring the measured effect to its halfway point.

`CC#CCn1c(N2CCC[C@@H](N)C2)nc2c1c(=O)n(CCCN1CCC(C(=O)Nc3ccc(C#N)cc3)CC1)c(=O)n2C` displayed an Activity in series [1] of 68.8%.
On to `CC#CCn1c(N2CCC[C@@H](N)C2)nc2c1c(=O)n(CCCN1CCC(C(=O)OCC)CC1)c(=O)n2C`, for which, in series [2], the inhibition was 12.5%. Moreover, the Activity in series [1] amounted to 51.4%.
`CC#CCn1c(N2CCC[C@@H](N)C2)nc2c1c(=O)n(CCCN1CCC(C(=O)Nc3ccc(C)cc3)CC1)c(=O)n2C` had an Activity in series [1] of 26.2%.
Turning to `CC#CCn1c(N2CCC[C@@H](N)C2)nc2c1c(=O)n(CCCN1CCC(C(=O)OC(C)C)CC1)c(=O)n2C`, in series [2], the inhibition amounted to 16%. Moreover, the Activity in series [1] stood at 60.4%.
In the case of `CC#CCn1c(N2CCC[C@@H](N)C2)nc2c1c(=O)n(CCCN1CCC(C(=O)Nc3ccc(Br)cc3)CC1)c(=O)n2C`, the Activity in series [1] was 27.9%.
On the same count and under the same terms, next, `CC#CCn1c(N2CCC[C@@H](N)C2)nc2c1c(=O)n(CCCCN1CCC(C(=O)OC(C)C)CC1)c(=O)n2C`: 9.8%.
For `CC#CCn1c(N2CCCNCC2)nc2c1c(=O)n(CCCN1CCC(C(=O)OC(C)C)CC1)c(=O)n2C`, the inhibition in series [2] stood at 22.5%. Moreover, the Activity in series [1] is 69.6%.
Take `CC#CCn1c(N2CCC[C@@H](N)C2)nc2c1c(=O)n(CCCN1CCC(C(=O)Nc3ccccc3)CC1)c(=O)n2C`: the Stability result in series [3] is listed as “Stable”. Moreover, the inhibition in series [2] was 36.8%. Also, the EC50 in series [4] worked out at 950 nM. The Activity in series [1] came out at 81.5%.
For `CC#CCn1c(N2CCC[C@@H](N)C2)nc2c1c(=O)n(CCCN1CCC(C(=O)Oc3ccccc3)CC1)c(=O)n2C`, the inhibition in series [2] turned out to be 26.3%. In series [1], this molecule displayed an Activity of 70.7%.
On to `CC#CCn1c(N2CC(N)C2)nc2c1c(=O)n(CCCN1CCC(C(=O)OC(C)C)CC1)c(=O)n2C`, for which, in series [1], the Activity is 36.5%.
Still for that read-out and setting: as for `CC#CCn1c(N2CCC[C@@H](N)C2)nc2c1c(=O)n(CCCN1CCC(C(=O)OC3CCCC3)CC1)c(=O)n2C`, the figure is 42.7%; as for `CC#CCn1c(N2CCC[C@@H](N)C2)nc2c1c(=O)n(CCCN1CCC(C(=O)Nc3ccc(OC)cc3)CC1)c(=O)n2C`, 44.4%.
As to `CC(C)c1noc(C2CCN(c3ncnc(Nc4ccc(S(C)(=O)=O)cc4F)c3[N+](=O)[O-])CC2)n1`, a half-maximal effect in series [4] (EC50) was put at 700 nM.
In series [1], `CC#CCn1c(N2CCC[C@@H](N)C2)nc2c1c(=O)n(CCCN1CCC(C(=O)Nc3ccc(Cl)cc3)CC1)c(=O)n2C` came in with an Activity of 18.9%.
In series [1], `CC#CCn1c(N2CCC[C@@H](N)C2)nc2c1c(=O)n(CCCN1CCC(C(=O)OCCC)CC1)c(=O)n2C` showed an Activity of 31.9%.
`CC#CCn1c(N2CCC[C@@H](N)C2)nc2c1c(=O)n(CC1CCN(C(=O)OC(C)C)CC1)c(=O)n2C`: in series [2], the inhibition was found to be 0%. Also, in series [4], the concentration for a half-maximal effect (EC50) worked out at 1900 nM. Further, the Activity in series [1] is 79.3%.
As for `CC#CCn1c(N2CCC[C@@H](N)C2)nc2c1c(=O)n(CCCN1CCC(C(=O)OC3CCCCC3)CC1)c(=O)n2C`, the Activity in series [1] was 29.9%.
The same measure, in the same setting: as for `CC#CCn1c(N2CCC[C@@H](N)C2)nc2c1c(=O)n(CCCN1CCC(C(=O)OC3CCC3)CC1)c(=O)n2C`, the figure is 54.8%.
`CC#CCn1c(N2CCC[C@@H](N)C2)nc2c1c(=O)n(CCC1CCN(C(=O)OC(C)C)CC1)c(=O)n2C`: the inhibition in series [2] is 10.5%. Besides, in series [1], the Activity was found to be 69.8%.
For `CC#CCn1c(N2CCC[C@@H](N)C2)nc2c1c(=O)n(CCCCC1CCN(C(=O)OC(C)C)CC1)c(=O)n2C`, in that order: 31.6% and 61.8%.
For the molecule `CC#CCn1c(N2CC[C@@H](N)C2)nc2c1c(=O)n(CCCN1CCC(C(=O)OC(C)C)CC1)c(=O)n2C`, the Activity in series [1] was 63.9%.
For `CC#CCn1c(N2CCC[C@@H](N)C2)nc2c1c(=O)n(CCCC1CCN(C(=O)OC(C)C)CC1)c(=O)n2C`, in series [2], the inhibition came out at 36.8%. Further, in series [1], the Activity was found to be 66.1%.
In series [1], `CC#CCn1c(N2CCC(N)CC2)nc2c1c(=O)n(CCCN1CCC(C(=O)OC(C)C)CC1)c(=O)n2C` registered an Activity of 14.5%.
As to `CC#CCn1c(N2CCC[C@@H](N)C2)nc2c1c(=O)n(CCCN1CCC(C(=O)Nc3ccc(F)cc3)CC1)c(=O)n2C`, the Activity in series [1] stood at 16.2%.
Consider `CC#CCn1c(N2CCC[C@@H](N)C2)nc2c1c(=O)n(CCCN1CCC(C(=O)N(C)C)CC1)c(=O)n2C`, for which, in series [2], the inhibition was 38.1%. For the same molecule, the Activity in series [1] worked out at 61.3%.
For `CC#CCn1c(N2CCC[C@@H](N)C2)nc2c1c(=O)n(CCCN1CCC(C(=O)OC)CC1)c(=O)n2C`, in that order: 21.1% and 74.5%.
On to `CC#CCn1c(N2CCC[C@@H](N)C2)nc2c1c(=O)n(CCN1CCC(C(=O)OC(C)C)CC1)c(=O)n2C`, for which the Activity in series [1] was found to be 54.2%.
